Legend:
[1] = test system: LPS-induced TNF in RAW 264.7 cells; experiment: Preincubation of RAW cells with peptide, wash, and supernatant transfer before LPS; format: cell-based, murine; conditions: for depression of TNF induction by aspirated medium containing CEMA: fresh RAW cells
Description: In order to determine how rapidly CEMA reduced LPS-induced TNF production, E. coli 0111:B4 or Bort LPS was added at time 0 to RAW macrophages. CEMA or Polymyxin B was added at time 0, 30 and 60 minutes. Levels of TNF were measured after 6 hours. […] To confirm that CEMA was acting on LPS rather than directly upon macrophage cell lines, 20 μg of CEMA was added to RAW cells and incubated for 60 minutes prior to aspiration of the medium and washing the cells 3 times with HBSS (Hanks Buffered Salt Solution).
To ensure that the cationic peptides were interacting with the LPS rather than the cell lines, […], and after incubation at 37° C. in 5% CO2 for 60 minutes, the supernatant was removed and added to a second well of untreated RAW 264.7 cells. Fresh medium was added to the peptide-treated RAW cells and 100 ng/ml of LPS was then added to both the peptide-treated cells and those reconstituted with supernatant, and these wells assayed for TNF production after 6 hours incubation at 37° C. in 5% CO2.
Both CEME and CEMA were reproducibly able to inhibit the induction, by E. coli 0111:B4 LPS, of TNF secretion by RAW 264.7 cells (Table 10). […] Virtually the same results were obtained with E. coli Bort LPS and in preliminary experiments with P. aeruginosa strain H 103 LPS. […] In contrast the supernatants from these preincubations (which presumably contained the peptides) when added to fresh RAW 264.7 cells, were able to suppress the ability of these cells to induce TNF in response to LPS stimulation, producing only 4451 units per ml;.

LPS-induced endotoxemia = experiment: Protection from lethal LPS endotoxicity in galactosamine-sensitized mouse endotoxic shock model; format: in vivo, mice; conditions: for % Mortality / dead/total: LPS 10 ug
Description: The ability of CEME and CEMA to protect against LPS-induced endotoxemia was assessed in vivo. Mice (8-10 weeks old) were injected intraperitoneally with […] D-galactosamine (Dgal) to sensitize them to LPS according to the mode of Galanos (Galanos, et al., Proc. Natl. Acad. Sci., USA, 76:5939-5943, 1979), followed by 0, 50, 100, or 200 μg CEME or CEMA in 100 μl. Immediately afterwards LPS (10 or 20 μg) in 100 μl was injected.
Mice are naturally resistant to LPS. […] Endotoxic shock was induced by intraperitoneal injection of 10 or 20 μg of E. coli 0111:B4 LPS in phosphate-buffered saline (PBS), pH 7.2 into galactosamine-sensitized 8-10 week old female CD-1 mice (Galanos, C., supra; Freudenberg, M. A., Inf. Immun., 51:891, 1986). In experiments involving peptides, 50-200 μg in 100 μl sterile water injected at separate intraperitoneal sites immediately before or after LPS injection. In survival experiments, survival was monitored at 24 to 48 hours post injection. In experiments measuring TNF, blood was withdrawn by cardiac puncture at timed intervals up to 8 hours after the injections and allowed to clot prior to measurement of TNF in the serum.
In contrast when CEMA was injected at around the same time as LPS, but at separate site in the peritoneum, it protected mice in a dose dependant fashion (FIG. 17). Endotoxemia was induced with 10 μg of E. coli 0111:B4 LPS injected into the peritoneum. Subsequently 50, 100, or 200 μg (2.2, 4.4, and 8.7 mg/kg) of CEME or CEMA was injected into a separate site in the peritoneum. […] mice were assessed for each experimental point. Mortality was observed after 24 hrs.

P. aeruginosa strain M2 = experiment: Survival of neutropenic mice challenged intraperitoneally with bacteria; format: in vivo, Pseudomonas aeruginosa
Description: To measure the anti-bacterial effect of peptides, a similar strategy was employed. Female CD-1 mice were rendered neutropenic with 3 injections of cyclophosphamide as described previously. (Cryz, S. J., Inf. Immun., 39(2): 1067, 1983) An […] dose of Pseudomonas aeruginosa strain M2 (approximately 10^2 organisms per mouse) was injected intra peritoneally and in the single dose experiments, 100 μl of PBS or sterile water containing 200 μg (8.7 mg/kg) of a cationic peptide was injected immediately afterwards. […] Survival was recorded at 24 and 48 hours.

[2] = single dose 200 μg (8.7 mg/kg) i.p.
[3] = two injections at 2 hours and 12 hour after P. aeruginosa

## CC[C@H](C)[C@H](NC(=O)CNC(=O)[C@@H](NC(=O)[C@H](CCCCN)NC(=O)[C@H](CCCCN)NC(=O)[C@H](Cc1ccccc1)NC(=O)[C@H](CC(C)C)NC(=O)[C@H](CCCCN)NC(=O)[C@H](Cc1c[nH]c2ccccc12)NC(=O)[C@@H](N)CCCCN)[C@@H](C)CC)C(=O)NCC(=O)N[C@@H](C)C(=O)N[C@H](C(=O)N[C@@H](CC(C)C)C(=O)N[C@@H](CCCCN)C(=O)N[C@H](C(=O)N[C@@H](CC(C)C)C(=O)N[C@H](C(=O)N[C@H](C(=O)NCC(=O)N[C@@H](CC(C)C)C(=O)N1CCC[C@H]1C(=O)N[C@@H](C)C(=O)N[C@@H](CC(C)C)C(=O)N[C@@H](CCCCN)C(=O)N[C@@H](CC(C)C)C(=O)N[C@H](C(=O)N[C@@H](CCCCN)C(=O)O)[C@@H](C)O)[C@@H](C)O)[C@@H](C)O)C(C)C)C(C)C [CEMA]
[1]; 20 μg CEMA preincubated 60 minutes, washed 3 times, then 10 ng or 100 ng of LPS
  TNF induction in washed RAW cells: 14,000-20,000 Units of TNF per ml
[1]; CEMA 20 μg/ml preincubated 60 minutes, supernatant removed, fresh medium and 100 ng/ml E. coli 0111:B4 LPS
  TNF induction in peptide-preincubated RAW 264.7 cells: 19062 Units per ml
[1]; 10 ng E. coli Bort LPS
  depression of TNF induction by aspirated medium containing CEMA: 98.5%
[1]; 100 ng E. coli Bort LPS
  depression of TNF induction by aspirated medium containing CEMA: 75%
[1]; supernatants from CEMA 20 μg/ml preincubations, LPS stimulation
  TNF induction in fresh RAW 264.7 cells given preincubation supernatants: 4451 units per ml
LPS-induced endotoxemia; 10 μg E. coli 0111:B4 LPS, peptide 50 μg
  survival: 60%
LPS-induced endotoxemia; 10 μg E. coli 0111:B4 LPS, peptide 100 μg
  survival: 75%
LPS-induced endotoxemia; 10 μg E. coli 0111:B4 LPS, peptide 200 μg (8.7 mg/kg)
  survival / mice protected: 78%
LPS-induced endotoxemia; peptide 50 ug
  % Mortality: 40%
  dead/total: 2/5
LPS-induced endotoxemia; peptide 100 ug
  % Mortality: 25%
  dead/total: 2/8
LPS-induced endotoxemia; peptide 200 ug
  % Mortality: 22%
  dead/total: 2/9
P. aeruginosa strain M2; [2]
  Survival (%): 43.3%
  Survival (survivors/total): 13/30
P. aeruginosa strain M2; [3]
  Survival (%): 55.0%
  Survival (survivors/total): 11/20
